Measurements as given in patent publication US20250314639A1, “SYSTEMS AND METHODS FOR HIGH THROUGHPUT SINGLE MOLECULE TRACKING IN LIVING CELLS” (EIKON THERAPEUTICS, INC., priority 2022, published 2025).
Entries after “also recorded” stand apart in the source; their conditions may differ.

Key:
ER [1] = target: T1, ER (Homo sapiens, UniProt P03372); assay: htSMT change in fbound of Halo-ER in U2OS cells; format: cell-based; details: for change in fbound of ER: versus DMSO, bioactive screen at 1 μM compound
T1 construct: expressed in transfected cells; host or cells: U2OS
T1 sequence (P03372 1-595): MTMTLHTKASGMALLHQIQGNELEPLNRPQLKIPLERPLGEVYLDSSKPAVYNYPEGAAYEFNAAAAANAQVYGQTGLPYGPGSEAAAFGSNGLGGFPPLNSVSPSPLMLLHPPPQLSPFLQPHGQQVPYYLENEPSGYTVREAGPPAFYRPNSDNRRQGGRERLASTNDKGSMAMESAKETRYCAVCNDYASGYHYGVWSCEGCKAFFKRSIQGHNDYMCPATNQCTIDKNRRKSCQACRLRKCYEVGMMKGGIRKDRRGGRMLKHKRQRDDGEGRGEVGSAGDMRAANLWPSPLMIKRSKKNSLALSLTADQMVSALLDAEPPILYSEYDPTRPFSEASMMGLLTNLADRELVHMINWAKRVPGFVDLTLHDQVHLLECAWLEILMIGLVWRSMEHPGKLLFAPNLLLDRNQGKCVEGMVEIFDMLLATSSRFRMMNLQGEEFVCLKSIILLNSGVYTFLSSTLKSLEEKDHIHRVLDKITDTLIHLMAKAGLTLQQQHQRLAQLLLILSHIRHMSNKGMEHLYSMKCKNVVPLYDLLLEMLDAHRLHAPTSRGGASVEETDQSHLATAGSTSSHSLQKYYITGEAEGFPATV

GR = target: T2, GR (Homo sapiens, UniProt P04150); assay: htSMT fbound of GR-HaloTag in U2OS cells; format: cell-based; details: 1 μM antagonist, singly or co-administered with the cognate agonist
T2 construct: Because U2OS cells express GR endogenously; endogenous in cells; host or cells: U2OS (CRISPR/Cas9 knock-in at the endogenous locus)
T2 sequence (P04150 1-777): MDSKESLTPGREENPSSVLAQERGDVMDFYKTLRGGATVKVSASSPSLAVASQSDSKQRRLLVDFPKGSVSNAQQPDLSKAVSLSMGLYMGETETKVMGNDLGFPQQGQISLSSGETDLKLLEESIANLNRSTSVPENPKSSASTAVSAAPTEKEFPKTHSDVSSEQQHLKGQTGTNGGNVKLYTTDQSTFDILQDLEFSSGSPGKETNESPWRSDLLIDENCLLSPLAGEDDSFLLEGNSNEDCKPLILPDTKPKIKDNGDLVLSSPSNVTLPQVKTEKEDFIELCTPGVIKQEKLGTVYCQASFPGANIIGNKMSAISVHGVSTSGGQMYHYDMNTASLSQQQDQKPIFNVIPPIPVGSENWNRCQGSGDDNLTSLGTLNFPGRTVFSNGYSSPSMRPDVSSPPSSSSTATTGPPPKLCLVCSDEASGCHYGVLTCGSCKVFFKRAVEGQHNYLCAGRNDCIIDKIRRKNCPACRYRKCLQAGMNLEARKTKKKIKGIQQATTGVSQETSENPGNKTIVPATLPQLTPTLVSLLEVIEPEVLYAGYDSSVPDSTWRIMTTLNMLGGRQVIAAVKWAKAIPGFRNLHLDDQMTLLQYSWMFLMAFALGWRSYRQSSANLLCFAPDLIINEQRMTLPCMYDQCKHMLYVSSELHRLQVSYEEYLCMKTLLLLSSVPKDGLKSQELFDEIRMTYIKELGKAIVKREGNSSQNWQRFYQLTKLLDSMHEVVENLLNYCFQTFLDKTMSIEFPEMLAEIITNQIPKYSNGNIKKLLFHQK
From the text: Where appropriate, compounds were serially diluted in an Echo Qualified 384-Well Low Dead Volume Source Microplate (0018544, Beckman Coulter) to generate dose-titration source material.

AR = AR (Homo sapiens, UniProt P10275)
ER [2] = target: T1, ER; assay: kinetic SMT (kSMT) of ER after compound addition; format: cell-based; details: for t1/2 of increase in fbound: 100 nM compound, single exponential fit; for time at which overall effect on ER movement reaches a plateau: FIG. 16C
ER [3] = target: T1, ER; assay: residence time imaging of ER-Halo cells (track length survival); format: cell-based; details: 100 nM HSP90 inhibition, versus DMSO, FIG. 16E
ER [4] = target: T1, ER; assay: Western blot of ER after 24 hours compound treatment; format: cell-based; details: 100 nM fulvestrant, MCF7, T47d, Halo-ER U2OS
Procedure: Cells were grown in the same conditions as described previously. […] Cells are lysed in 200 μL 1× Cell Lysis Buffer (catalogue number 9803, Cell Signaling). Protein lysate concentration is then determined using BCA protein assay kit (Catalog number 23225, Pierce™ BCA Protein Assay Kit) following manufacturer instructions. Capillary Western Immunoassay were performed using Jess Protein Simple following manufacturer's instruction (protein simple, USA). Levels of αER (1:100, RM-9101) were normalized to loading control β-tubulin (1:100, NC0244815 LI-COR 92642213, Thermo Fisher). The peaks were analyzed with the Compass software (Protein Simple, USA).

Sequence of AR (P10275 whole entry): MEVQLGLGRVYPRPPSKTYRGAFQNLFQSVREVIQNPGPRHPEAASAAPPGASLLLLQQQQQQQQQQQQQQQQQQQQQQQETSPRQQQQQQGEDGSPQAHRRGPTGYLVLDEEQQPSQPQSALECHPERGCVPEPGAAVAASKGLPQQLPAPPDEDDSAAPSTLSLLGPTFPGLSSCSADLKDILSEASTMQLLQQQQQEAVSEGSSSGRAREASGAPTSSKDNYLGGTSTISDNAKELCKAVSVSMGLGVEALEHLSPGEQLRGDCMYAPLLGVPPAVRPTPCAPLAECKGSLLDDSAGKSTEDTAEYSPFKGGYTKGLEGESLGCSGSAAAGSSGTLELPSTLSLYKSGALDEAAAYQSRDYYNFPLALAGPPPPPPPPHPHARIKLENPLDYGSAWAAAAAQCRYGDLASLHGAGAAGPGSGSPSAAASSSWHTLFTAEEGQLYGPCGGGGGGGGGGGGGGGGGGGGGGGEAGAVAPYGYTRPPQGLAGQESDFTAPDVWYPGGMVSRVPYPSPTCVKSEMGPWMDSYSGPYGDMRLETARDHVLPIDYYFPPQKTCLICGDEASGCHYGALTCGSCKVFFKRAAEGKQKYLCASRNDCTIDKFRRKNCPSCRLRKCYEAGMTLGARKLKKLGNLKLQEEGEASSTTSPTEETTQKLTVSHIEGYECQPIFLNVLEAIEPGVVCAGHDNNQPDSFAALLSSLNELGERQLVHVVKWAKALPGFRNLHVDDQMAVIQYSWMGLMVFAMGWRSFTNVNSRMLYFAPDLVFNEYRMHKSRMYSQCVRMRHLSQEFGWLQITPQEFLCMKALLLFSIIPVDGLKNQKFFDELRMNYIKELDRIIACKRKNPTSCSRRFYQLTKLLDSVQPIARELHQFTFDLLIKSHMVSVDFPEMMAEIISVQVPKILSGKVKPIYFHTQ

Molecule	change in fbound of ER (ER [1])	t1/2 of increase in fbound (ER [2])	time at which overall effect on ER movement reaches a plateau (ER [2])	decrease in the total number of long binding events (ER [3])	other results
4-hydroxytamoxifen	significantly increased fbound	–	–	–	maximal increase in fbound of ER (ER [1]; compared with the SERDs fulvestrant and GDC-0927, FIG. 14D): lower maximal increases in fbound
CN(C)c1ccc(C(c2ccc(N(C)C)cc2)c2cc([N+](=O)[O-])ccc2Cl)cc1 [AL082D06]	–	–	–	–	change in chromatin binding (fbound) of GR (GR): decrease in chromatin binding
CC(O)c1cc(C(=O)N[C@@H](C)Cn2ccc(-c3ccc(C#N)c(Cl)c3)n2)[nH]n1 (some centres unmarked) [Darolutamide]	–	–	–	–	change in chromatin binding (fbound) of AR (AR): decrease in chromatin binding
COc1cccc(-c2cc(F)ccc2[C@H]2Cc3nc(N)nc(C)c3C(=O)N2)n1 [HSP990]	an increase in fbound	17.5 min	plateau after an hour	two	–
C[C@]12CC[C@@H]3c4ccc(O)cc4C[C@@H](CCCCCCCCC[S+]([O-])CCCC(F)(F)C(F)(F)F)[C@H]3[C@@H]1CC[C@@H]2O (some centres unmarked) [fulvestrant]	caused an increase in fbound; also recorded: significantly increased fbound	–	–	–	ER degradation (western blot) (ER [4]): leads to the degradation of ER
CC(C)c1cc(-c2n[nH]c(=O)n2-c2ccc3c(ccn3C)c2)c(O)cc1O [ganetespib]	an increase in fbound	19.3 min	plateau after an hour	four	–
